{"source": "paper PMC5218480", "about": "(PLoS ONE, 2017)", "tested_on": "MV-4-11 cells", "experiment": "Gene expression microarray analysis (Affymetrix PrimeView) and GSEA", "assay_type": "cell-based, human", "parameters": "RFU PODN (11730768_x_at) / Fold change /veh PODN (11730768_x_at) / RFU LINC00158 (11744669_a_at) / Fold change /veh LINC00158 (11744669_a_at) / RFU DUSP10 (11751237_a_at) / Fold change /veh DUSP10 (11751237_a_at) / RFU ID3 (11757404_x_at) / Fold change /veh ID3 (11757404_x_at) / RFU PLEKHG5 (11737974_s_at) / Fold change /veh PLEKHG5 (11737974_s_at) / RFU LRRC4B (11730491_at) / Fold change /veh LRRC4B (11730491_at) / RFU GIMAP4 (11747438_a_at) / Fold change /veh GIMAP4 (11747438_a_at) / RFU KRT8 (11758183_x_at) / Fold change /veh KRT8 (11758183_x_at) / RFU CNN1 (11734310_a_at) / Fold change /veh CNN1 (11734310_a_at) / RFU VPS37D (11726825_at) / Fold change /veh VPS37D (11726825_at) / RFU C10orf10 (11716522_x_at) / Fold change /veh C10orf10 (11716522_x_at) / RFU KIR2DL2 /// KIR2DL4 /// KIR2DL5A /// KIR2DL5B /// KIR2DS1 /// KIR2DS2 /// KIR2DS3 /// KIR2DS4 /// KIR3DL3 /// KIR3DL3 /// KIR3DS1 (11738374_at) / Fold change /veh KIR2DL2 /// KIR2DL4 /// KIR2DL5A /// KIR2DL5B /// KIR2DS1 /// KIR2DS2 /// KIR2DS3 /// KIR2DS4 /// KIR3DL3 /// KIR3DL3 /// KIR3DS1 (11738374_at) / RFU C1QL1 (11718748_at) / Fold change /veh C1QL1 (11718748_at) / RFU TMPRSS4 (11747572_a_at) / Fold change /veh TMPRSS4 (11747572_a_at) / RFU HAMP (11756126_x_at) / Fold change /veh HAMP (11756126_x_at) / RFU RNFT2 (11725882_a_at) / Fold change /veh RNFT2 (11725882_a_at) / RFU NR4A2 (11747474_a_at) / Fold change /veh NR4A2 (11747474_a_at) / RFU ABCC12 (11746883_a_at) / Fold change /veh ABCC12 (11746883_a_at) / RFU TMEM136 (11760407_x_at) / Fold change /veh TMEM136 (11760407_x_at) / RFU CLDN22 /// WWC2 (11732394_at) / Fold change /veh CLDN22 /// WWC2 (11732394_at) / RFU HLA-DPB1 (11760878_x_at) / Fold change /veh HLA-DPB1 (11760878_x_at) / RFU SPINT1 (11716480_a_at) / Fold change /veh SPINT1 (11716480_a_at) / RFU GAP43 (11754022_s_at) / Fold change /veh GAP43 (11754022_s_at) / RFU A4GNT (11735810_at) / Fold change /veh A4GNT (11735810_at) / RFU PRB3 (11715151_x_at) / Fold change /veh PRB3 (11715151_x_at) / RFU TUBB4B (11761932_at) / Fold change /veh TUBB4B (11761932_at) / RFU CAPN14 (11732068_a_at) / Fold change /veh CAPN14 (11732068_a_at) / RFU TMCC2 (11721928_a_at) / Fold change /veh TMCC2 (11721928_a_at) / RFU IRGQ (11745062_a_at) / Fold change /veh IRGQ (11745062_a_at) / RFU FAM174B (11720279_a_at) / Fold change /veh FAM174B (11720279_a_at) / RFU TMPRSS4 (11748680_a_at) / Fold change /veh TMPRSS4 (11748680_a_at) / RFU FAM212B (11763350_a_at) / Fold change /veh FAM212B (11763350_a_at) / RFU PLEKHG5 (11743358_a_at) / Fold change /veh PLEKHG5 (11743358_a_at) / RFU ZSCAN30 (11745921_a_at) / Fold change /veh ZSCAN30 (11745921_a_at) / RFU CMKLR1 (11741424_a_at) / Fold change /veh CMKLR1 (11741424_a_at) / RFU LOC101060620 /// MAPK8IP1 (11723275_at) / Fold change /veh LOC101060620 /// MAPK8IP1 (11723275_at) / RFU SPTSSB (11747773_x_at) / Fold change /veh SPTSSB (11747773_x_at) / RFU PRSS12 (11739890_at) / Fold change /veh PRSS12 (11739890_at) / RFU BIN1 (11741810_x_at) / Fold change /veh BIN1 (11741810_x_at) / RFU WNT11 (11732464_a_at) / Fold change /veh WNT11 (11732464_a_at) / RFU C10orf10 (11716521_a_at) / Fold change /veh C10orf10 (11716521_a_at) / RFU C5orf56 (11738089_at) / Fold change /veh C5orf56 (11738089_at) / RFU CYB561 (11721691_x_at) / Fold change /veh CYB561 (11721691_x_at) / RFU ANKRD19P (11752326_a_at) / Fold change /veh ANKRD19P (11752326_a_at) / RFU OR2T12 /// OR2T33 /// OR2T8 (11738714_s_at) / Fold change /veh OR2T12 /// OR2T33 /// OR2T8 (11738714_s_at) / RFU VCAN (11748164_a_at) / Fold change /veh VCAN (11748164_a_at) / RFU JSRP1 (11732532_at) / Fold change /veh JSRP1 (11732532_at) / RFU KRTAP10-11 (11738290_x_at) / Fold change /veh KRTAP10-11 (11738290_x_at) / RFU MYO3A (11730013_a_at) / Fold change /veh MYO3A (11730013_a_at) / RFU EBF3 (11725865_a_at) / Fold change /veh EBF3 (11725865_a_at) / RFU CAMK2N1 (11719241_x_at) / Fold change /veh CAMK2N1 (11719241_x_at) / RFU C5orf56 (11738088_a_at) / Fold change /veh C5orf56 (11738088_a_at) / RFU OLFML3 (11715873_a_at) / Fold change /veh OLFML3 (11715873_a_at) / RFU LOC100653217 /// NTM (11731650_a_at) / Fold change /veh LOC100653217 /// NTM (11731650_a_at) / RFU MAPK11 (11762145_a_at) / Fold change /veh MAPK11 (11762145_a_at) / RFU FIZ1 (11724087_x_at) / Fold change /veh FIZ1 (11724087_x_at) / RFU OASL (11726364_x_at) / Fold change /veh OASL (11726364_x_at) / RFU SOX15 (11748057_x_at) / Fold change /veh SOX15 (11748057_x_at) / RFU CD79A (11719716_a_at) / Fold change /veh CD79A (11719716_a_at) / RFU HIST1H1D (11736915_at) / Fold change /veh HIST1H1D (11736915_at) / RFU CASKIN2 (11723855_a_at) / Fold change /veh CASKIN2 (11723855_a_at) / RFU LOC730098 (11760151_x_at) / Fold change /veh LOC730098 (11760151_x_at) / RFU OR4N2 (11742367_at) / Fold change /veh OR4N2 (11742367_at) / RFU PRRT2 (11749266_a_at) / Fold change /veh PRRT2 (11749266_a_at) / RFU SNX32 (11753110_a_at) / Fold change /veh SNX32 (11753110_a_at) / RFU CDHR5 (11726645_a_at) / Fold change /veh CDHR5 (11726645_a_at) / RFU RCAN1 (11760418_a_at) / Fold change /veh RCAN1 (11760418_a_at) / RFU FAM167A (11723789_a_at) / Fold change /veh FAM167A (11723789_a_at) / RFU FAM26E (11764081_at) / Fold change /veh FAM26E (11764081_at) / RFU ISYNA1 (11749810_s_at) / Fold change /veh ISYNA1 (11749810_s_at) / RFU ACY1 (11761880_at) / Fold change /veh ACY1 (11761880_at) / RFU 11764098_at / Fold change /veh 11764098_at / RFU SAMD14 (11745864_x_at) / Fold change /veh SAMD14 (11745864_x_at) / RFU NPB (11741838_a_at) / Fold change /veh NPB (11741838_a_at) / RFU TMPRSS6 (11731388_a_at) / Fold change /veh TMPRSS6 (11731388_a_at) / RFU KRTAP10-2 (11738614_at) / Fold change /veh KRTAP10-2 (11738614_at) / RFU ARHGAP8 /// PRR5-ARHGAP8 (11727945_x_at) / Fold change /veh ARHGAP8 /// PRR5-ARHGAP8 (11727945_x_at) / RFU KRTAP5-7 /// NADSYN1 (11734609_at) / Fold change /veh KRTAP5-7 /// NADSYN1 (11734609_at) / RFU RASL12 (11751679_a_at) / Fold change /veh RASL12 (11751679_a_at) / RFU CDKN2B (11736163_a_at) / Fold change /veh CDKN2B (11736163_a_at) / RFU PRF1 (11729649_at) / Fold change /veh PRF1 (11729649_at) / RFU, ZNF638 /// ZNF638-IT1 / Fold change vs veh, ZNF638 /// ZNF638-IT1 / RFU, PANK3 / Fold change vs veh, PANK3 / RFU, SH3YL1 / Fold change vs veh, SH3YL1 / RFU, ZEB2 / Fold change vs veh, ZEB2 / RFU, NRIP1 / Fold change vs veh, NRIP1 / RFU, PTTG1IP / Fold change vs veh, PTTG1IP / RFU, CAPN2 / Fold change vs veh, CAPN2 / RFU, MED14 / Fold change vs veh, MED14 / RFU, SNORA58 / Fold change vs veh, SNORA58 / RFU, C1orf63 / Fold change vs veh, C1orf63 / RFU, LRRFIP1 / Fold change vs veh, LRRFIP1 / RFU, NDUFAF7 / Fold change vs veh, NDUFAF7 / RFU, SLC12A2 / Fold change vs veh, SLC12A2 / RFU, IBTK / Fold change vs veh, IBTK / RFU, ESF1 / Fold change vs veh, ESF1 / Fold change vs veh, TMEM50B / RFU, TAOK1 / Fold change vs veh, TAOK1 / RFU, ACBD3 / Fold change vs veh, ACBD3 / RFU, TMA16 / Fold change vs veh, TMA16 / RFU, RWDD3 / Fold change vs veh, RWDD3 / RFU, BCAT1 / Fold change vs veh, BCAT1 / RFU, EDEM3 / Fold change vs veh, EDEM3 / RFU, TMEM33 / Fold change vs veh, TMEM33 / RFU, WDR75 / Fold change vs veh, WDR75 / RFU, AHCTF1 / Fold change vs veh, AHCTF1 / RFU, TFRC / Fold change vs veh, TFRC / RFU, ZDHHC17 / Fold change vs veh, ZDHHC17 / RFU, NOM1 / Fold change vs veh, NOM1 / RFU, ARL8B / Fold change vs veh, ARL8B / RFU, ZBTB11 / Fold change vs veh, ZBTB11 / RFU, TAMM41 / Fold change vs veh, TAMM41 / RFU, KIAA1704 /// LOC100996395 / Fold change vs veh, KIAA1704 /// LOC100996395 / RFU, ING1 / Fold change vs veh, ING1 / RFU, TRMT61B / Fold change vs veh, TRMT61B / RFU, FUBP3 / Fold change vs veh, FUBP3 / RFU, TP53 / Fold change vs veh, TP53 / RFU, TNKS2 / Fold change vs veh, TNKS2 / RFU, ZFP14 / Fold change vs veh, ZFP14 / RFU, ACTR2 / Fold change vs veh, ACTR2 / RFU, PPP3R1 / Fold change vs veh, PPP3R1 / RFU, PIK3R1 / Fold change vs veh, PIK3R1 / RFU, HNRNPA1 / Fold change vs veh, HNRNPA1 / RFU, RNF170 / Fold change vs veh, RNF170 / RFU, ZNF28 / Fold change vs veh, ZNF28 / RFU, RNGTT / Fold change vs veh, RNGTT / RFU, OGT / Fold change vs veh, OGT / RFU, BRD1 / Fold change vs veh, BRD1 / RFU, MARS / Fold change vs veh, MARS / RFU, ZNF655 / Fold change vs veh, ZNF655 / RFU, FAHD1 / Fold change vs veh, FAHD1 / RFU, BDP1 / Fold change vs veh, BDP1 / RFU, LRRCC1 / Fold change vs veh, LRRCC1 / RFU, ARID1A / Fold change vs veh, ARID1A / RFU, ZNF146 / Fold change vs veh, ZNF146 / RFU, ZNF330 / Fold change vs veh, ZNF330 / RFU, GPN3 / Fold change vs veh, GPN3 / RFU, C9orf123 / Fold change vs veh, C9orf123 / RFU, N4BP2L2 / Fold change vs veh, N4BP2L2 / RFU, ARFIP1 / Fold change vs veh, ARFIP1 / RFU, FAM179B / Fold change vs veh, FAM179B / RFU, BCL10 / Fold change vs veh, BCL10 / RFU, UHRF1BP1L / Fold change vs veh, UHRF1BP1L / RFU, BET1 / Fold change vs veh, BET1 / RFU, CNOT2 / Fold change vs veh, CNOT2 / RFU, ZNF268 / Fold change vs veh, ZNF268 / Fold change vs veh, ZNF507 / RFU, DGCR2 / Fold change vs veh, DGCR2 / RFU, WDSUB1 / Fold change vs veh, WDSUB1 / Fold change vs veh, HSP90B1 /// MIR3652 / RFU, ADSS / Fold change vs veh, ADSS / RFU, GK / Fold change vs veh, GK / RFU, ZNF148 / Fold change vs veh, ZNF148 / RFU, TAF9 / Fold change vs veh, TAF9 / RFU, SLC1A5 / Fold change vs veh, SLC1A5 / RFU, SLMO2 / Fold change vs veh, SLMO2 / RFU, ABCC4 / Fold change vs veh, ABCC4 / RFU, LOC101060439 /// RAP1B / Fold change vs veh, LOC101060439 /// RAP1B / RFU, RFX7 / Fold change vs veh, RFX7 / RFU, GTPBP10 / Fold change vs veh, GTPBP10 / RFU, CNEP1R1 / Fold change vs veh, CNEP1R1 / RFU, BIVM-ERCC5 /// ERCC5 / Fold change vs veh, BIVM-ERCC5 /// ERCC5 / RFU, ILF3 / Fold change vs veh, ILF3 / RFU 11762660_at / Fold change /veh 11762660_at / RFU VCAN (11757783_s_at) / Fold change /veh VCAN (11757783_s_at) / RFU DDX43 (11728927_at) / Fold change /veh DDX43 (11728927_at) / RFU KRT8 (11758188_x_at) / Fold change /veh KRT8 (11758188_x_at) / RFU NKD1 (11759106_at) / Fold change /veh NKD1 (11759106_at) / RFU SRD5A1 (11742802_a_at) / Fold change /veh SRD5A1 (11742802_a_at) / RFU TPSAB1 /// TPSB2 (11721975_s_at) / Fold change /veh TPSAB1 /// TPSB2 (11721975_s_at) / RFU GSTM3 (11746129_a_at) / Fold change /veh GSTM3 (11746129_a_at) / RFU IL23R (11737362_x_at) / Fold change /veh IL23R (11737362_x_at) / RFU TMEM51 (11727254_a_at) / Fold change /veh TMEM51 (11727254_a_at) / RFU PIWIL2 (11732686_x_at) / Fold change /veh PIWIL2 (11732686_x_at) / RFU ORM1 (11744905_x_at) / Fold change /veh ORM1 (11744905_x_at) / RFU CCDC152 (11743942_at) / Fold change /veh CCDC152 (11743942_at) / RFU ECM1 (11717891_a_at) / Fold change /veh ECM1 (11717891_a_at) / RFU IL23R (11748794_a_at) / Fold change /veh IL23R (11748794_a_at) / RFU TNFAIP8L3 (11732012_x_at) / Fold change /veh TNFAIP8L3 (11732012_x_at) / RFU MBOAT4 (11741988_at) / Fold change /veh MBOAT4 (11741988_at) / RFU 11764193_at / Fold change /veh 11764193_at / RFU TMEM53 (11763286_at) / Fold change /veh TMEM53 (11763286_at) / RFU MAGEB2 (11727129_at) / Fold change /veh MAGEB2 (11727129_at) / RFU TMEM200A (11744735_a_at) / Fold change /veh TMEM200A (11744735_a_at) / RFU CCDC152 (11751479_a_at) / Fold change /veh CCDC152 (11751479_a_at) / RFU FAM211A (11726209_a_at) / Fold change /veh FAM211A (11726209_a_at) / RFU RGS16 (11746705_a_at) / Fold change /veh RGS16 (11746705_a_at) / RFU VCAN (11755009_s_at) / Fold change /veh VCAN (11755009_s_at) / RFU RHOB (11743442_s_at) / Fold change /veh RHOB (11743442_s_at) / RFU RGS16 (11720943_a_at) / Fold change /veh RGS16 (11720943_a_at) / RFU RGS16 (11720944_at) / Fold change /veh RGS16 (11720944_at) / RFU, VPS4B / Fold change vs veh, VPS4B / RFU, CREB1 / Fold change vs veh, CREB1 / RFU, DNAJC13 / Fold change vs veh, DNAJC13 / RFU, GNAQ / Fold change vs veh, GNAQ / RFU, CDK5R1 / Fold change vs veh, CDK5R1 / RFU, ZRANB3 / Fold change vs veh, ZRANB3 / RFU, CUL4A / Fold change vs veh, CUL4A / RFU, CCNY / Fold change vs veh, CCNY / RFU, UFL1 / Fold change vs veh, UFL1 / RFU, COG3 / Fold change vs veh, COG3 / RFU, DIAPH2 / Fold change vs veh, DIAPH2 / RFU, SKA2 / Fold change vs veh, SKA2 / RFU, AFF3 / Fold change vs veh, AFF3 / RFU, LMF1 / Fold change vs veh, LMF1 / RFU, IPO11 / Fold change vs veh, IPO11 / RFU, DFFB / Fold change vs veh, DFFB / RFU, FOXP1 / Fold change vs veh, FOXP1 / RFU, CARD8 / Fold change vs veh, CARD8 / RFU, STRN3 / Fold change vs veh, STRN3 / RFU, ADK / Fold change vs veh, ADK / RFU, RASSF2 / Fold change vs veh, RASSF2 / RFU, WIPF1 / Fold change vs veh, WIPF1 / RFU, LARP1B / Fold change vs veh, LARP1B / RFU, RASA1 / Fold change vs veh, RASA1 / RFU, RB1 / Fold change vs veh, RB1 / RFU, PPFIA1 / Fold change vs veh, PPFIA1 / RFU, MAT2A / Fold change vs veh, MAT2A / RFU, CCT5 / Fold change vs veh, CCT5 / RFU, WDR92 / Fold change vs veh, WDR92 / RFU, CUX1 / Fold change vs veh, CUX1 / RFU, TTC7A / Fold change vs veh, TTC7A / RFU, TMEM135 / Fold change vs veh, TMEM135 / RFU, DEPTOR / Fold change vs veh, DEPTOR / RFU, CPM / Fold change vs veh, CPM / RFU, DNAJB6 / Fold change vs veh, DNAJB6 / RFU, CACNA2D3 / Fold change vs veh, CACNA2D3 / RFU, DTX4 / Fold change vs veh, DTX4 / RFU, TFCP2 / Fold change vs veh, TFCP2 / RFU, GMCL1 /// GMCL1P1 / Fold change vs veh, GMCL1 /// GMCL1P1 / RFU, AEBP2 / Fold change vs veh, AEBP2 / RFU, SNHG1 /// SNORD22 /// SNORD25 /// SNORD26 /// SNORD27 /// SNORD28 /// SNORD29 /// SNORD31 / Fold change vs veh, SNHG1 /// SNORD22 /// SNORD25 /// SNORD26 /// SNORD27 /// SNORD28 /// SNORD29 /// SNORD31 / Fold change (Aza/veh), C12orf56 (ProbeSet 11735607_a_at) / Fold change (ACY-1035/veh), C12orf56 (ProbeSet 11735607_a_at) / Fold change (Aza/veh), FGFR1OP (ProbeSet 11751329_s_at) / Fold change (ACY-1035/veh), FGFR1OP (ProbeSet 11751329_s_at) / Fold change (Aza/veh), VPS36 (ProbeSet 11739960_a_at) / Fold change (ACY-1035/veh), VPS36 (ProbeSet 11739960_a_at) / RFU SYPL1 (11715823_x_at) / Fold change /veh SYPL1 (11715823_x_at) / RFU IGFBP7 (11715501_s_at) / Fold change /veh IGFBP7 (11715501_s_at) / RFU REEP3 (11722064_at) / Fold change /veh REEP3 (11722064_at) / RFU IGLL1 (11728026_x_at) / Fold change /veh IGLL1 (11728026_x_at): dose or concentration left out as unconfirmed", "details": "MV-4-11 cells, 48 hours"}
{"smiles": "Nc1ccc(-c2cccs2)cc1NC(=O)c1ccc2c(c1)cc(C1CC1)n2CCN1CCOCC1", "note": "[ACY-1035]", "values": [{"measurement": "Fold change /veh MBOAT4 (11741988_at)", "result": 1.14}]}
